Source: ChEMBL document CHEMBL2390904, “Bioavailable affinity label for collagen prolyl 4-hydroxylase” (Bioorg Med Chem, 2013)
Calls of active or inactive are those of the source. No cut-off for these calls is given here.

Tests used:
[1] = Binding affinity to human P4H expressed in Escherichia coli using dansyl-Gly-phe-pro-Gly-OEt as substrate at 356 mM incubated up to 5 mins followed by substrate addition by competition assay in presence of alpha-ketoglutarate
[2] = Binding affinity to human P4H expressed in Escherichia coli at 13 mM after 30 mins by SDS-PAGE analysis
Caenorhabditis elegans = test: (§1) Toxicity in L4-stage of Caenorhabditis elegans expressing dpy-18 assessed as embyronic lethality after 24 hrs by light microscopic analysis; format: organism-based; conditions: in vivo, 24 h
[3] = as §1; format: organism-based; conditions: in vivo, read-out: LD50
[4] = Irreversible inhibition of human P4H expressed in Escherichia coli using dansyl-Gly-phe-pro-Gly-OEt and alpha-ketoglutarate as substrate incubated up to 15 mins followed by substrate addition by Kitz-Wilson plot analysis

In the case of O=C([O-])CCC(=O)C1CO1.[Na+] (racemic), the Activity [1] is reported as “Active”, the Activity [2] is reported as “Active” and the Activity (Caenorhabditis elegans) is reported as “Dose-dependent effect”. For the same compound, the LC50 at 24 h [3] was 110 µM and the inhibition [4] was “Dose-dependent effect”.
